{
  "source": "patent US7803559B1",
  "about": "“Protein aggregation regulators” (The Regents of the University of CA, priority 2003, dated 2010)",
  "note": "Counter-ions that a name gives are not always drawn.",
  "data": [
    {"tested_on": "ARN127(65)CFP/YFP", "test": "Primary high-throughput AR FRET screen of three libraries", "assay_type": "cell-based, human", "settings": "compounds at 4 μg/ml, HEK293, ARN127(65)CFP/YFP + GRΔ, 100 nM dex, ~48 hours", "method": "(§1) Selected candidate compounds and/or libraries of compounds were screened as follows. Daughter plates were created in duplicate from the 384-well microtiter plates that contained the compounds at a concentration of 80 μg/ml. Compounds were aliquoted in 96-well plates (Costar™ 3603) at a concentration at which most of the compounds are active, but are not toxic to the cells (e.g., of 4 μg/ml). To screen a library, HEK293 cells stably expressing RFP were plated in 10 cm plates to obtain ˜80% confluency on the day of transfection. Each plate was transfected with 2 μg of ARN127(65)CFP/YFP each, and 0.7 μg p6RGRΔ using 50 μL Plus Reagent™ and 76 μL Lipofectamine™ according to manufacturer's protocol (Invitrogen). After 3 hours, complete medium was added and the plates were incubated further for 3 hours. […] The cells were then cultured for ˜48 hours to allow aggregate formation. After fixing the cells FRET signal was measured using a SAFIRE Fluorescence Plate Reader (Tecan, Inc.) according to methods described above. Several internal controls were used to standardize each experiment. Mock transfected cells were used to control for background autofluorescence and light scattering by mammalian cells. To control for CFP bleedthrough and crossover excitation of YFP, additional wells contained cells expressing ARN127(25)CFP or ARN127(25)YFP alone. RFP was measured to control for non-specific effects on steady-state protein levels. ARN127(25)CFP/YFP expression served as a reference point for background FRET levels without aggregation (a theoretical maximum effect on aggregation inhibition). FRET measurements for each experiment were thus scaled between 100% (cells with no drug treatment) and 0% (FRET levels from unexpanded protein). Last, each plate also contained wells treated with Y-27632 (50 μM) as a positive control.\nas §1, with “Daughter” for “Selected candidate compounds and/or libraries of compounds were screened as follows. Daughter”, “a single concentration, e.g.,” for “a concentration of”, “concentration of 4 μg/ml,” for “concentration”, “the cells.” for “the cells (e.g., of 4 μg/ml).”, “screen the” for “screen a”", "units": {"% Inhibition": "%"}, "values": [
      {"molecule": "O=c1ncnc2n([C@H]3O[C@@H](CO)[C@H](O)[C@@H]3O)[nH]cc1-2", "note": "(stereo in doubt) [Allopurinol riboside]", "% Inhibition": 71.8},
      {"molecule": "NCc1ccc(Cl)cc1Cl", "note": "[2,4-Dichlorobenzylamine]", "% Inhibition": 85},
      {"molecule": "COC1=C2CC[C@@H]3[C@H](CC[C@]4(C)C(=O)CC[C@@H]34)[C@@]2(C)CCC1=O", "note": "[4-Androsten-4-ol-3,17-dione 4-methyl ether]", "% Inhibition": 65.3},
      {"molecule": "Nc1nc2c(nc(Br)n2[C@@H]2O[C@@H]3COP(=O)([O-])O[C@H]3[C@H]2O)c(=O)[nH]1.[Na+]", "note": "[8-Bromoguanosine 3′,5′-cyclic monophosphate sodium salt]", "% Inhibition": 71},
      {"molecule": "Cl.NC[C@@H]1O[C@H](C23CC4CC(CC(C4)C2)C3)Cc2c1ccc(O)c2O", "note": "[A-77636 hydrochloride]", "% Inhibition": 64},
      {"molecule": "NC(N)=NCCC[C@H](N)C(=O)C[C@@H](Cc1ccc(O)cc1)C(=O)O.NC(N)=NCCC[C@H](N)C(=O)C[C@@H](Cc1ccc(O)cc1)C(=O)O.O=S(=O)(O)O", "note": "[Arphamenine B Hemisulfate Salt: Hydrate]", "% Inhibition": 69.7},
      {"molecule": "Cn1cnc([N+](=O)[O-])c1Sc1ncnc2nc[nH]c12", "note": "[Azathioprine]", "% Inhibition": 74.5},
      {"molecule": "Cc1nnc(SCC2=C(C(=O)O)N3C(=O)[C@@H](NC(=O)Cn4cnnn4)[C@H]3SC2)s1", "note": "[Cefazolin sodium]", "% Inhibition": 70},
      {"molecule": "CO[C@@H]1O[C@H](CO)[C@H](O)[C@H](O[C@@H]2O[C@H](CO)[C@@H](O)[C@H](O)[C@H]2NC(C)=O)[C@H]1O", "note": "[Methyl 3-O-(2-Acetamido-2-Deoxy-B-D-Glucopyranosyl)-B-D-Galactopyranoside]", "% Inhibition": 70},
      {"molecule": "NCCCCCCNS(=O)(=O)c1cccc2ccccc12", "note": "[N-6-Aminohexyl-1-Naphthalenesulfonamide]", "% Inhibition": 79.7},
      {"molecule": "Cc1ccc(S(=O)(=O)N[C@@H](CCC(N)=O)C(=O)OC(C)C)cc1", "note": "[N-(P-Tosyl)-L-Glutamine Isopropyl Ester]", "% Inhibition": 80.6},
      {"molecule": "Nc1ccc(S(=O)(=O)Nc2ncccn2)cc1", "note": "[Sulfadiaine Free Acid]", "% Inhibition": 80},
      {"molecule": "Cytosine beta-D-arabinofuranoside Hydrochloride", "% Inhibition": 81},
      {"molecule": "L-Canavanine Free Base", "% Inhibition": 73}
    ]},
    {"biological_target": "T1, htt(72)CFP/YFP (Homo sapiens, UniProt P42858, INS38QQQQQQQQQQQQQQQQQQQQQQQQQQQQQQQQQQQQQQQQQQQQQQQQQQQ)", "T1 construct": "htt exon 1 fragment derived from plasmid qp72; expressed in transfected cells; host or cells: HEK293", "T1 sequence (P42858 with tags, fused parts or gaps, stated change not applied)": "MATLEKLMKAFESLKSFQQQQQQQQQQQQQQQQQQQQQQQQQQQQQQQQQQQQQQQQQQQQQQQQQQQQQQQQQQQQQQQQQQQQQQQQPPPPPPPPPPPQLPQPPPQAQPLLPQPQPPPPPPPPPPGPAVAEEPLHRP", "test": "FRET based assay of htt aggregation", "assay_type": "cell-based", "settings": "HEK293, htt(72)CFP/YFP, 24 hours", "method": "Aggregation of htt was monitored using the FPR FRET based HTS described herein for assaying aggregation of AR, using plasmids with htt exon 1-CFP and -YFP fusions containing 72 repeats (htt(72)CFP/YFP). HEK293 cells were transfected with htt(72)CFP/YFP as above, and cells were plated into a 96-well dish in the presence or absence of various concentrations of test compounds. After 24 hours, cells were fixed in 4% paraformaldehyde, and FRET signal was determined from the cell monolayers by reading on the FPR.", "units": {"Max % Inh. in Htt": "%"}, "values": [
      {"molecule": "COc1cc2ncnc(Nc3ccc(F)c(Cl)c3)c2cc1OC(C)=O", "note": "[Compound 3, Acetic acid 4-(3-chloro-4-fluoro-phenylamino)-7-methoxy-quinazolin-6-yl ester]", "Max % Inh. in Htt": 21},
      {"molecule": "COc1cc2nc[nH]c(=O)c2cc1OC(C)=O", "note": "[Compound 4, Acetic acid 7-methoxy-4-oxo-3,4-dihydro-quinazolin-6-yl ester]", "Max % Inh. in Htt": 15},
      {"molecule": "COc1cc2ncnc(Nc3ccc(F)c(Cl)c3)c2cc1OCCCN1CCOCC1", "note": "[Iressa, (3-Chloro-4-fluoro-phenyl)-[7-methoxy-6-(3-morpholin-4-yl-propoxy)-quinazolin-4-yl]-amine]", "Max % Inh. in Htt": 20}
    ]},
    {"tested_on": "ARN127(65)CFP/YFP", "test": "Secondary screen using the AR FRET assay", "assay_type": "cell-based, human", "settings": "not given", "method": "as §1, with “Compounds were aliquoted in 96-well plates (Costar™ 3603) at a concentration at which most of the compounds are active, but are not toxic to the cells (e.g., of 4 μg/ml).” left out, “protein).” for “protein). Last, each plate also contained wells treated with Y-27632 (50 μM) as a positive control.”\n(§2) Selected candidate compounds from the primary screen of all three libraries were assayed again in a secondary screen using the AR FRET assay.\n(§3) Finally, the role of F-actin in preventing polyglutamine aggregation was investigated by treating cells with two agents that prevent actin depolymerization: phalloidin and jasplakinolide.", "units": {"Max % Inhibition": "%"}, "values": [
      {"molecule": "(2-hydroxyethyl) trimethylammonium chloride carbamate [Carbachol]", "Max % Inhibition": 20}
    ]},
    {"tested_on": "ARN127(65)CFP/YFP", "test": "Secondary screen using the AR FRET assay", "assay_type": "cell-based, human", "settings": "agents that prevent actin depolymerization, Table 5", "method": "as §1, with “Compounds were aliquoted in 96-well plates (Costar™ 3603) at a concentration at which most of the compounds are active, but are not toxic to the cells (e.g., of 4 μg/ml).” left out, “protein).” for “protein). Last, each plate also contained wells treated with Y-27632 (50 μM) as a positive control.”\nas §2, §3", "units": {"Max % Inhibition": "%"}, "values": [
      {"molecule": "C/C1=C\\[C@H](C)C[C@H](C)OC(=O)C[C@H](c2ccc(O)cc2)NC(=O)[C@@H](Cc2c(Br)[nH]c3ccccc23)N(C)C(=O)[C@H](C)NC(=O)[C@@H](C)C1", "note": "[Jasplakinolide]", "Max % Inhibition": 30},
      {"molecule": "Phalloidin", "Max % Inhibition": 35}
    ]},
    {"tested_on": "ARN127(65)CFP/YFP", "test": "Secondary screen using the AR FRET assay", "assay_type": "cell-based, human", "settings": "secondary screen, AR FRET assay, Table 3", "method": "as §1, with “Compounds were aliquoted in 96-well plates (Costar™ 3603) at a concentration at which most of the compounds are active, but are not toxic to the cells (e.g., of 4 μg/ml).” left out, “protein).” for “protein). Last, each plate also contained wells treated with Y-27632 (50 μM) as a positive control.”\nas §2, §3", "units": {"Max % Inhibition": "%"}, "values": [
      {"molecule": "O=C1CC(c2ccc(O)cc2)Oc2cc(O)cc(O)c21", "note": "(racemic) [Naringenin, (±)-2,3-Dihydro-5,7-dihydroxy-2-(4-hydroxyphenyl)-4H-1-benzopyran-4-one]", "Max % Inhibition": 19},
      {"molecule": "COc1ccc([C@@H]2Sc3ccccc3N(CCN(C)C)C(=O)[C@@H]2OC(C)=O)cc1.Cl", "note": "(relative stereo) [Diltiazem HCl, (2S,3S)-(+)-cis-3-Acetoxy-5-(2-dimethylaminoethyl)-2,3-dihydro-2-(4-methoxyphenyl)-1,5-benzothiazepin-4(5H)-one hydrochloride]", "Max % Inhibition": 22},
      {"molecule": "COc1ccc2c(c1OC)C(=O)O[C@H]2[C@@H]1c2cc3c(cc2CCN1C)OCO3", "note": "[1S,9R-beta hydrastine, 1S,9R-(+)-beta hydrastine]", "Max % Inhibition": 18},
      {"molecule": "CCCCC/C=C\\C/C=C\\C/C=C\\C/C=C\\CCCC(=O)O", "note": "[Arachidonic acid, cis,cis,cis,cis-5,8,11,14-Eicosatetraenoic aci]", "Max % Inhibition": 19},
      {"molecule": "CNCCc1ccccn1.Cl.Cl", "note": "[Betahistine hydrochloride, N-methyl-N-(2-pyridin-2-ylethyl)amine dihydrochloride]", "Max % Inhibition": 19},
      {"molecule": "NS(=O)(=O)c1cc2c(cc1Cl)N=CNS2(=O)=O", "note": "[Chlorothiazide, 6-Chloro-2H-1,2,4-benzothiadiazine-7-sulfonamide 1,1-dioxide]", "Max % Inhibition": 19},
      {"molecule": "COc1cc2ncnc(Nc3ccc(F)c(Cl)c3)c2cc1OC(C)=O", "note": "[Compound 3, Acetic acid 4-(3-chloro-4-fluoro-phenylamino)-7-methoxy-quinazolin-6-yl ester]", "Max % Inhibition": 30},
      {"molecule": "COc1cc2nc[nH]c(=O)c2cc1OC(C)=O", "note": "[Compound 4, Acetic acid 7-methoxy-4-oxo-3,4-dihydro-quinazolin-6-yl ester]", "Max % Inhibition": 28},
      {"molecule": "COc1cc(C)c(C(=O)Oc2cc(C)c(C(=O)O)c(O)c2C)c(OC)c1C", "note": "[Diffractic acid, 4-[(2,4-dimethoxy-3,6-dimethylbenzoyl)-oxy]-2-hydroxy-3,6-dimethylbenzoic acid]", "Max % Inhibition": 20},
      {"molecule": "O=C(O)c1ccccc1OP(=O)(O)O", "note": "[Fosfosal, 2-phosphonooxybenzoic acid]", "Max % Inhibition": 23},
      {"molecule": "CC1=CC(=O)C2=C(C)CCC3[C@H](C)C(=O)O[C@@H]3[C@H]12", "note": "(stereo partly drawn) [Leucodin, (3S,9aR,9bS)-3,6,9-trimethyl-3,3a,4,5,9a,9b-hexahydroazuleno-[4,5-b]furan-2,7-dione]", "Max % Inhibition": 23},
      {"molecule": "Cc1cc(-c2ccccc2)nnc1NCCN1CCOCC1", "note": "[Minaprine HCl, N-(4-Methyl-6-phenyl-3-pyridazinyl)-4-morpholineethanamin]", "Max % Inhibition": 18},
      {"molecule": "CCOC(=O)Nc1c[n+](N2CCOCC2)no1", "note": "[Molsidomine, N-(Ethoxycarbonyl)-3-(4-morpholino)sydnone imine]", "Max % Inhibition": 20},
      {"molecule": "CC(C)(C)NCC(O)COc1cccc2c1CC(O)C(O)C2", "note": "(stereo not drawn) [Nadolol]", "Max % Inhibition": 19},
      {"molecule": "DL-alanine,2,4-chlorophenyl-1,1-dimethylethyl ester [Alaproclate]", "Max % Inhibition": 17},
      {"molecule": "N,N-bis(4-aminobutyl)amine [Spermidine HCl]", "Max % Inhibition": 19}
    ]}
  ]
}
